Test results from ChEMBL document CHEMBL1201862, “PubChem BioAssay data set” (2004).
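Method: 48-hour compound exposure of cells in 96-well plates, five concentrations, linear interpolation of endpoints. Here, GI50 denotes the concentration required for 50% inhibition of growth.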 The source made the active and inactive calls. Cut-off read from the data, not from the text of the source: active = GI50 up to about 1.1 µM and inactive = higher.

Tests used:
Assay in all cases: NCI tumour cell line growth inhibition, 48 h
786-0 = test system: 786-0
A498 = test system: A498
A549 = test system: A549
ACHN = test system: ACHN
CCRF-CEM = test system: CCRF-CEM
COLO 205 = test system: COLO 205
DLD-1 = test system: DLD-1
DMS-114 = test system: DMS-114
EKVX = test system: EKVX
HCC 2998 = test system: HCC 2998
HCT-116 = test system: HCT-116
HCT-15 = test system: HCT-15
HL-60 = test system: HL-60
HOP-62 = test system: HOP-62
HT-29 = test system: HT-29
IGROV-1 = test system: IGROV-1
K562 = test system: K562
KM-20L2 = test system: KM-20L2
KM12 = test system: KM12
LXFL 529 = test system: LXFL 529
M14 = test system: M14
M19-MEL = test system: M19-MEL
MOLT-4 = test system: MOLT-4
Malme-3M = test system: Malme-3M
NCI-H226 = test system: NCI-H226
NCI-H23 = test system: NCI-H23
NCI-H460 = test system: NCI-H460
NCI-H522 = test system: NCI-H522
OVCAR-3 = test system: OVCAR-3
OVCAR-4 = test system: OVCAR-4
OVCAR-5 = test system: OVCAR-5
OVCAR-8 = test system: OVCAR-8
RPMI-8226 = test system: RPMI-8226
RXF 393 = test system: RXF 393
RXF 631 = test system: RXF 631
SF-268 = test system: SF-268
SF-295 = test system: SF-295
SF-539 = test system: SF-539
SK-MEL-28 = test system: SK-MEL-28
SK-MEL-2 = test system: SK-MEL-2
SK-OV-3 = test system: SK-OV-3
SN12C = test system: SN12C
SNB-19 = test system: SNB-19
SNB-75 = test system: SNB-75
SR = test system: SR
SW-620 = test system: SW-620
TK-10 = test system: TK-10
U-251 = test system: U-251
UACC-257 = test system: UACC-257
UACC-62 = test system: UACC-62
UO-31 = test system: UO-31
CAKI-1 = test system: CAKI-1
DMS-273 = test system: DMS-273
HOP-18 = test system: HOP-18
HOP-92 = test system: HOP-92
LOX IMVI = test system: LOX IMVI
SK-MEL-5 = test system: SK-MEL-5
SNB-78 = test system: SNB-78
XF498 = test system: XF498

## CC1=C(C)C(=O)C2=C(OCCCO2)C1=O
786-0
  GI50: 19.2 µM (inactive)
A498
  GI50: > 10 µM (inactive)
A549
  GI50: 81.8 µM (inactive)
ACHN
  GI50: 18.4 µM (inactive)
CCRF-CEM
  GI50: 2.43 µM (inactive)
COLO 205
  GI50: 34.2 µM (inactive)
DLD-1
  GI50: > 10 µM (inactive)
DMS-114
  GI50: 18.4 µM (inactive)
EKVX
  GI50: 17.2 µM (inactive)
HCC 2998
  GI50: 59.4 µM (inactive)
HCT-116
  GI50: > 10 µM (inactive)
HCT-15
  GI50: > 100 µM
HL-60
  GI50: 3.61 µM (inactive)
HOP-62
  GI50: > 100 µM (inactive)
HT-29
  GI50: 20.8 µM (inactive)
IGROV-1
  GI50: 18.2 µM (inactive)
K562
  GI50: 21.6 µM (inactive)
KM-20L2
  GI50: 34.2 µM (inactive)
KM12
  GI50: > 10 µM (inactive)
LXFL 529
  GI50: 18 µM (inactive)
M14
  GI50: 17 µM (inactive)
M19-MEL
  GI50: 17.9 µM (inactive)
MOLT-4
  GI50: 2.4 µM (inactive)
Malme-3M
  GI50: > 10 µM (inactive)
NCI-H226
  GI50: > 10 µM (inactive)
NCI-H23
  GI50: > 10 µM (inactive)
NCI-H460
  GI50: > 10 µM (inactive)
NCI-H522
  GI50: 18 µM (inactive)
OVCAR-3
  GI50: 18.1 µM (inactive)
OVCAR-4
  GI50: > 10 µM (inactive)
OVCAR-5
  GI50: > 10 µM (inactive)
OVCAR-8
  GI50: 18.7 µM (inactive)
RPMI-8226
  GI50: 16.5 µM (inactive)
RXF 393
  GI50: > 10 µM (inactive)
RXF 631
  GI50: 17.7 µM (inactive)
SF-268
  GI50: 18.3 µM (inactive)
SF-295
  GI50: 29.1 µM (inactive)
SF-539
  GI50: > 10 µM (inactive)
SK-MEL-28
  GI50: 35.6 µM (inactive)
SK-MEL-2
  GI50: > 10 µM (inactive)
SK-OV-3
  GI50: > 100 µM (inactive)
SN12C
  GI50: > 10 µM (inactive)
SNB-19
  GI50: > 100 µM (inactive)
SNB-75
  GI50: 23.8 µM (inactive)
SR
  GI50: 21.9 µM (inactive)
SW-620
  GI50: 17 µM (inactive)
TK-10
  GI50: > 10 µM (inactive)
U-251
  GI50: > 100 µM (inactive)
UACC-257
  GI50: > 10 µM (inactive)
UACC-62
  GI50: 18.1 µM (inactive)
UO-31
  GI50: 16.5 µM (inactive)

## COC(=O)C(CC(=O)Nc1ccc(C)cc1)C(=O)C(=O)Nc1ccccc1C(C)C (centres undefined)
786-0
  GI50: > 100 µM (inactive)
A498
  GI50: > 100 µM (inactive)
A549
  GI50: > 100 µM (inactive)
ACHN
  GI50: > 100 µM (inactive)
CAKI-1
  GI50: > 100 µM (inactive)
CCRF-CEM
  GI50: > 100 µM (inactive)
COLO 205
  GI50: 89.7 µM (inactive)
DLD-1
  GI50: > 100 µM (inactive)
DMS-114
  GI50: > 100 µM (inactive)
DMS-273
  GI50: > 100 µM (inactive)
EKVX
  GI50: > 100 µM (inactive)
HCC 2998
  GI50: > 100 µM (inactive)
HCT-116
  GI50: > 100 µM (inactive)
HCT-15
  GI50: > 100 µM
HL-60
  GI50: > 100 µM (inactive)
HOP-18
  GI50: > 100 µM (inactive)
HOP-62
  GI50: > 100 µM (inactive)
HOP-92
  GI50: > 100 µM (inactive)
HT-29
  GI50: > 100 µM (inactive)
IGROV-1
  GI50: > 100 µM (inactive)
K562
  GI50: > 100 µM (inactive)
KM-20L2
  GI50: > 100 µM (inactive)
KM12
  GI50: > 100 µM (inactive)
LOX IMVI
  GI50: > 100 µM (inactive)
LXFL 529
  GI50: > 100 µM (inactive)
M14
  GI50: > 100 µM (inactive)
M19-MEL
  GI50: > 100 µM (inactive)
MOLT-4
  GI50: > 100 µM (inactive)
Malme-3M
  GI50: > 100 µM (inactive)
NCI-H226
  GI50: > 100 µM (inactive)
NCI-H23
  GI50: > 100 µM (inactive)
NCI-H460
  GI50: > 100 µM (inactive)
NCI-H522
  GI50: > 100 µM (inactive)
OVCAR-3
  GI50: > 100 µM (inactive)
OVCAR-4
  GI50: > 100 µM (inactive)
OVCAR-5
  GI50: > 100 µM (inactive)
OVCAR-8
  GI50: > 100 µM (inactive)
RPMI-8226
  GI50: 62.4 µM (inactive)
RXF 393
  GI50: > 100 µM (inactive)
SF-268
  GI50: > 100 µM (inactive)
SF-295
  GI50: > 100 µM (inactive)
SF-539
  GI50: > 100 µM (inactive)
SK-MEL-28
  GI50: > 100 µM (inactive)
SK-MEL-2
  GI50: > 100 µM (inactive)
SK-MEL-5
  GI50: > 100 µM (inactive)
SK-OV-3
  GI50: > 100 µM (inactive)
SN12C
  GI50: > 100 µM (inactive)
SNB-19
  GI50: > 100 µM (inactive)
SNB-75
  GI50: > 100 µM (inactive)
SNB-78
  GI50: > 100 µM (inactive)
SR
  GI50: > 100 µM (inactive)
SW-620
  GI50: 22.2 µM (inactive)
TK-10
  GI50: > 100 µM (inactive)
U-251
  GI50: > 100 µM (inactive)
UACC-257
  GI50: > 100 µM (inactive)
UACC-62
  GI50: > 100 µM (inactive)
UO-31
  GI50: > 100 µM (inactive)
XF498
  GI50: > 100 µM (inactive)

## CCOc1ccc(/C=C(\Cl)c2ccc(OC)cc2)cc1
786-0
  GI50: > 100 µM (inactive)
A498
  GI50: 25.2 µM (inactive)
A549
  GI50: > 100 µM (inactive)
ACHN
  GI50: > 100 µM (inactive)
CCRF-CEM
  GI50: > 100 µM (inactive)
COLO 205
  GI50: > 100 µM (inactive)
DLD-1
  GI50: > 100 µM (inactive)
DMS-114
  GI50: 78.7 µM (inactive)
DMS-273
  GI50: > 100 µM (inactive)
EKVX
  GI50: > 100 µM (inactive)
HCC 2998
  GI50: > 100 µM (inactive)
HCT-116
  GI50: > 100 µM (inactive)
HCT-15
  GI50: > 100 µM
HL-60
  GI50: 47.6 µM (inactive)
HOP-18
  GI50: > 100 µM (inactive)
HOP-62
  GI50: > 100 µM (inactive)
HOP-92
  GI50: > 100 µM (inactive)
HT-29
  GI50: > 100 µM (inactive)
IGROV-1
  GI50: > 100 µM (inactive)
K562
  GI50: > 100 µM (inactive)
KM-20L2
  GI50: > 100 µM (inactive)
LXFL 529
  GI50: > 100 µM (inactive)
M14
  GI50: > 100 µM (inactive)
M19-MEL
  GI50: > 100 µM (inactive)
MOLT-4
  GI50: > 100 µM (inactive)
Malme-3M
  GI50: > 100 µM (inactive)
NCI-H226
  GI50: > 100 µM (inactive)
NCI-H23
  GI50: > 100 µM (inactive)
NCI-H522
  GI50: > 100 µM (inactive)
OVCAR-4
  GI50: > 100 µM (inactive)
OVCAR-8
  GI50: > 100 µM (inactive)
RPMI-8226
  GI50: > 100 µM (inactive)
RXF 393
  GI50: > 100 µM (inactive)
SF-268
  GI50: > 100 µM (inactive)
SF-295
  GI50: > 100 µM (inactive)
SF-539
  GI50: > 100 µM (inactive)
SK-MEL-28
  GI50: > 100 µM (inactive)
SK-MEL-5
  GI50: > 100 µM (inactive)
SK-OV-3
  GI50: > 100 µM (inactive)
SN12C
  GI50: > 100 µM (inactive)
SNB-19
  GI50: > 100 µM (inactive)
SNB-75
  GI50: > 100 µM (inactive)
SNB-78
  GI50: > 100 µM (inactive)
SR
  GI50: > 100 µM (inactive)
SW-620
  GI50: > 100 µM (inactive)
U-251
  GI50: > 100 µM (inactive)
UACC-257
  GI50: > 100 µM (inactive)
UACC-62
  GI50: > 100 µM (inactive)
UO-31
  GI50: > 100 µM (inactive)
XF498
  GI50: > 100 µM (inactive)
